Laboratory results: PMC12655579, “Cocrystallization of Ezetimibe with Organic Acids: Stoichiometric Optimization for Improved Solubility and Bioavailability” (Pharmaceutics, 2025)

Tests used:
[1] = In vivo pharmacokinetics after single oral gavage; conditions: rat, male Sprague Dawley rats, fasted, plasma, table prints dose 10 mg/kg for all groups (methods: CRYS101 10 mg/kg, CRYS102-104 30 mg/kg)
Procedure: The stock standard solution was prepared by dissolving ezetimibe at 0.5 mg/mL in 40% MeOH. The absorbance of the standards was measured at 233 nm using UV-VIS spectrophotometer (Optizen pop, Mecasys®, Seoul, Republic of Korea). The bioanalysis was performed using validated LC-MS/MS methods with MRM detection (details in Supplementary Materials). The method was developed using an Agilent 1290 Infinity II BioLC system coupled with an Agilent 6495D Triple-Quadrupole mass spectrometer, employing electrospray ionization (ESI). Chromatographic separation was achieved on a Kintex C18 column (2.6 μm, 100 × 3 mm) maintained at 30 °C, using an isocratic mobile phase of water-acetonitrile (20:80 v/v) at 0.25 mL/min flow rate. The run time was optimized to 5 min with a 2 μL injection volume. Mass spectrometric detection utilized multiple reaction monitoring (MRM) in negative polarity mode for ezetimibe ([M − H]^− m/z 408.1 → 271.1) and positive mode for the internal standard itraconazole ([M + H]^+ m/z 705.2 → 391.6). Detailed description is included in the Supplementary Materials.
In vivo pharmacokinetic profile of ezetimibe cocrystal formulations was assessed in male Sprague Dawley rats (n = 4 per group, 7–8-week-old, mean weight 271.1 g). The SD rats were obtained from G-Bio (Gwangju, Republic of Korea). They were maintained under a 12 h light/dark cycle and provided with free access to food and water. The animal experimental protocol was approved by the Institutional Animal Care and Use Committee (IACUC) of Mokpo National University (Mokpo, Republic of Korea; approval no. MNU-IACUC-2025-015).
The rats were fasted overnight before oral administration, and four formulation groups received single oral doses through gavage: Group 1 (CRYS101) at 10 mg/kg and Groups 2–4 (CRYS102-104) at 30 mg/kg. Blood samples (200 μL) were collected from the femoral artery at predetermined time points after the administration. The collected samples were centrifuged at 16,000× g for 5 min at 4 °C, and the plasma was stored at −70 °C until analysis. The plasma samples analyzed using a validated UPLC-MS/MS method with 1 ng/mL lower quantification limit.

[2] = In vitro dissolution (USP apparatus II, paddle); format: physicochemical; conditions: 0.45% w/v SLS in 0.05 M acetate buffer pH 4.5, 37 °C
Procedure: The samples were mixed in a 5 mL tube with 2 mL of the solvent at a concentration of 1 mg/mL using a multi-mixer (SLRM-3, Seoulin Biosciences, Pangyo, Republic of Korea) for 48 h at 25 °C. The mixtures were then centrifuged at 13,000 rpm for 10 min (Eppendorf 5425R, Hamburg, Germany) and manually filtered using a 0.45 μm polytetrafluoroethylene (PTFE-H) syringe filter. The absorbance of the filtered samples at 233 nm was measured using a UV-VIS spectrophotometer. Similarly, dissolution was assessed using the USP dissolution apparatus II (paddle) (Varian 705 DS, Cary, NC, USA) at 50 rpm in 500 mL of 0.45% w/v SLS in 0.05 M acetate buffer (pH 4.5) at 37 ± 0.5 °C. The cocrystal samples (equivalent to 10 mg ezetimibe) were weighed and added into the dissolution vessel (n = 3). Aliquots were collected at predetermined time points: 5 min, 10 min, 15 min, 30 min, 45 min, 60 min, 90 min, and 120 min. The displaced volume was replenished with fresh buffer after each sampling. The collected samples were filtered through a 0.45 µm RC syringe filter and subjected to UV-VIS spectrophotometer.

With `O=C1[C@H](CC[C@H](O)c2ccc(F)cc2)[C@@H](c2ccc(O)cc2)N1c1ccc(F)cc1` [Ezetimibe] the AUC(0-inf) ([1]; SD not determined) was 41.8 ng·h/mL, the AUC(0-t) ([1]; n = 4/group, mean ± SD) was 11 ± 8.63 ng·h/mL and the Cmax ([1]; n = 4/group, mean ± SD) was 6.73 ± 4.29 ng/mL. For the same compound, the Tmax ([1]; n = 4/group, mean ± SD) was 1.33 ± 0.76 h and the “In vitro release at 120 min” value [2] was 45%.
